Data on 28 compounds can be found in ChEMBL document CHEMBL5726876, “NHE3-binding compounds and methods for inhibiting phosphate transport” (2019).

The nature of the test: Cell-based activity under Prompt Conditions: Cell-based activity under Prompt Conditions. Rat or human NHE3-mediated Na+-dependent H+ antiport was measured using a modification of the pH sensitive dye method originally reported by Paradiso (PNAS USA. 81:7436-7440, 1984). Opossum kidney (OK) cells were obtained from the ATCC and propagated per their instructions. The rat NHE3 gene (GenBank M85300) or the human NHE3 gene (GenBank NM_004174.1) was introduced into OK cells via electroporation, and cells were seeded into 96 well plates and grown overnight. Medium was aspirated from the wells, cells were washed twice with NaCl-HEPES buffer (100 mM NaCl, 50 mM HEPES, 10 mM glucose, 5 mM KCl, 2 mM CaCl2, 1 mM MgCl2, pH 7.4), then incubated for 30 min at room temperature with NH4Cl-HEPES buffer (20 mM NH4Cl, 80 mM NaCl, 50 mM HEPES, 5 mM KCl, 2 mM CaCl2, 1 mM MgCl2, pH 7.4) containing 5 μM bis(acetoxymethyl) 3,3′-(3′,6′-bis(acetoxymethoxy)-5-((acetoxymethoxy)carbonyl)-3-oxo-3H-spiro[isobenzofuran-1,9′-xanthene]-2′,7′-diyl)dipropanoate (BCECF-AM).Cells were washed twice with Ammonium free, Na+-free HEPES (100 mM choline, 50 mM HEPES, 10 mM glucose, 5 mM KCl, 2 mM CaCl2, 1 mM MgCl2, pH 7.4) and incubated in the same buffer for 10 minutes at room temperature to lower intracellular pH. […] Initial rates were plotted as the average 2 or more replicates, and pIC50 values were estimated using GraphPad Prism.
For the compound `CN1Cc2c(Cl)cc(Cl)cc2[C@H](c2cccc(S(=O)(=O)NCCOCCOCCOCCNC(=O)CC(CC(=O)NCCOCCOCCOCCNS(=O)(=O)c3cccc([C@@H]4CN(C)Cc5c(Cl)cc(Cl)cc54)c3)C(=O)NCCOCCOCCOCCNS(=O)(=O)c3cccc([C@@H]4CN(C)Cc5c(Cl)cc(Cl)cc54)c3)c2)C1`, the IC50 was 31.6 nM.
Take `CN1Cc2c(Cl)cc(Cl)cc2[C@H](c2cccc(S(=O)(=O)NCCOCCOCCOCCn3cc(CN(Cc4cn(CCOCCOCCOCCNS(=O)(=O)c5cccc([C@@H]6CN(C)Cc7c(Cl)cc(Cl)cc76)c5)nn4)Cc4cnnn4CCOCCOCCOCCNS(=O)(=O)c4cccc([C@@H]5CN(C)Cc6c(Cl)cc(Cl)cc65)c4)nn3)c2)C1`: the concentration for half-maximal inhibition (IC50) was 5010 nM.
As for `CN1Cc2c(Cl)cc(Cl)cc2[C@H](c2cccc(S(=O)(=O)NCCOCCOCCNC(=O)CN(CCOCCOCCN(CC(=O)NCCOCCOCCNS(=O)(=O)c3cccc([C@@H]4CN(C)Cc5c(Cl)cc(Cl)cc54)c3)CC(=O)NCCOCCOCCNS(=O)(=O)c3cccc([C@@H]4CN(C)Cc5c(Cl)cc(Cl)cc54)c3)CC(=O)NCCOCCOCCNS(=O)(=O)c3cccc([C@@H]4CN(C)Cc5c(Cl)cc(Cl)cc54)c3)c2)C1`, the figure is 1580 nM; as for `CN1Cc2c(Cl)cc(Cl)cc2[C@H](c2cccc(S(=O)(=O)NCCOCCOCCOCCNC(=O)CC(O)(CC(=O)NCCOCCOCCOCCNS(=O)(=O)c3cccc([C@@H]4CN(C)Cc5c(Cl)cc(Cl)cc54)c3)C(=O)NCCOCCOCCOCCNS(=O)(=O)c3cccc([C@@H]4CN(C)Cc5c(Cl)cc(Cl)cc54)c3)c2)C1`, 100 nM; as for `NCCOCCOCCNS(=O)(=O)c1ccc(O[C@H]2c3ccccc3C[C@@H]2N2CCCCC2)cc1`, 447 nM.
Consider `O=C(NCCCCNC(=O)NCCOCCOCCNS(=O)(=O)c1ccc(O[C@H]2c3cc(Cl)cc(Cl)c3C[C@@H]2N2CC[C@@H](O)C2)cc1)NCCOCCOCCNS(=O)(=O)c1ccc(O[C@H]2c3cc(Cl)cc(Cl)c3C[C@@H]2N2CC[C@@H](O)C2)cc1`, for which the concentration for half-maximal inhibition (IC50) is < 10000 nM.
On to `CN1Cc2c(Cl)cc(Cl)cc2[C@H](c2cccc(S(=O)(=O)NCCOCCOCCOCCNC(=O)CN3CCN(CC(=O)NCCOCCOCCOCCNS(=O)(=O)c4cccc([C@@H]5CN(C)Cc6c(Cl)cc(Cl)cc65)c4)CCN(CC(=O)NCCOCCOCCOCCNS(=O)(=O)c4cccc([C@@H]5CN(C)Cc6c(Cl)cc(Cl)cc65)c4)CCN(CC(=O)NCCOCCOCCOCCNS(=O)(=O)c4cccc([C@@H]5CN(C)Cc6c(Cl)cc(Cl)cc65)c4)CC3)c2)C1`, for which the IC50 is 501 nM.
To `CN1Cc2c(Cl)cc(Cl)cc2[C@H](c2cccc(S(=O)(=O)NCCOCCOCCNC(=O)CN(CC(=O)NCCOCCOCCNS(=O)(=O)c3cccc([C@@H]4CN(C)Cc5c(Cl)cc(Cl)cc54)c3)CC(=O)NCCOCCOCCNS(=O)(=O)c3cccc([C@@H]4CN(C)Cc5c(Cl)cc(Cl)cc54)c3)c2)C1` belongs 501 nM; to `CN1Cc2c(Cl)cc(Cl)cc2[C@H](c2cccc(S(=O)(=O)NCCOCCOCCNC(=O)NCCCN(CCCNC(=O)NCCOCCOCCNS(=O)(=O)c3cccc([C@@H]4CN(C)Cc5c(Cl)cc(Cl)cc54)c3)CCCNC(=O)NCCOCCOCCNS(=O)(=O)c3cccc([C@@H]4CN(C)Cc5c(Cl)cc(Cl)cc54)c3)c2)C1`, 562 nM.
For `CN1Cc2c(Cl)cc(Cl)cc2[C@H](c2cccc(S(=O)(=O)NCCOCCOCCNC(=O)CC(O)(CC(=O)NCCOCCOCCNS(=O)(=O)c3cccc([C@@H]4CN(C)Cc5c(Cl)cc(Cl)cc54)c3)C(=O)NCCOCCOCCNS(=O)(=O)c3cccc([C@@H]4CN(C)Cc5c(Cl)cc(Cl)cc54)c3)c2)C1`, the 50% inhibitory concentration (IC50) is 1000 nM.
To `O=C(NCCCCNC(=O)NCCOCCOCCNS(=O)(=O)c1ccc(O[C@H]2c3cc(Cl)cc(Cl)c3C[C@@H]2N2CCCCC2)cc1)NCCOCCOCCNS(=O)(=O)c1ccc(O[C@H]2c3cc(Cl)cc(Cl)c3C[C@@H]2N2CCCCC2)cc1` belongs < 10000 nM.
With `CN1Cc2c(Cl)cc(Cl)cc2[C@H](c2cccc(S(=O)(=O)NCCOCCOCCNC(=O)NCCN(CCNC(=O)NCCOCCOCCNS(=O)(=O)c3cccc([C@@H]4CN(C)Cc5c(Cl)cc(Cl)cc54)c3)C(=O)CCCCCCCCCCC(=O)N(CCNC(=O)NCCOCCOCCNS(=O)(=O)c3cccc([C@@H]4CN(C)Cc5c(Cl)cc(Cl)cc54)c3)CCNC(=O)NCCOCCOCCNS(=O)(=O)c3cccc([C@@H]4CN(C)Cc5c(Cl)cc(Cl)cc54)c3)c2)C1`, the IC50 is < 10000 nM.
To `CN1Cc2c(Cl)cc(Cl)cc2[C@H](c2cccc(S(=O)(=O)NCCOCCOCCNC(=O)CN(CCN(CC(=O)O)CC(=O)NCCOCCOCCNS(=O)(=O)c3cccc([C@@H]4CN(C)Cc5c(Cl)cc(Cl)cc54)c3)CC(=O)O)c2)C1` belongs 12.6 nM; to `CN1Cc2c(Cl)cc(Cl)cc2[C@H](c2cccc(S(=O)(=O)NCCOCCOCCNC(=O)CCN(CCC(=O)NCCOCCOCCNS(=O)(=O)c3cccc([C@@H]4CN(C)Cc5c(Cl)cc(Cl)cc54)c3)CCC(=O)NCCOCCOCCNS(=O)(=O)c3cccc([C@@H]4CN(C)Cc5c(Cl)cc(Cl)cc54)c3)c2)C1`, 3160 nM.
As for `CN1Cc2c(Cl)cc(Cl)cc2[C@H](c2cccc(S(=O)(=O)NCCOCCOCCOCCNC(=O)CN3CCN(c4nc(N5CCN(CC(=O)NCCOCCOCCOCCNS(=O)(=O)c6cccc([C@@H]7CN(C)Cc8c(Cl)cc(Cl)cc87)c6)CC5)nc(N5CCN(CC(=O)NCCOCCOCCOCCNS(=O)(=O)c6cccc([C@@H]7CN(C)Cc8c(Cl)cc(Cl)cc87)c6)CC5)n4)CC3)c2)C1`, the figure is 251 nM; as for `CN1Cc2c(Cl)cc(Cl)cc2[C@H](c2cccc(S(=O)(=O)NCCOCCOCCOCCNC(=O)NCCN(CCNC(=O)NCCOCCOCCOCCNS(=O)(=O)c3cccc([C@@H]4CN(C)Cc5c(Cl)cc(Cl)cc54)c3)CCNC(=O)NCCOCCOCCOCCNS(=O)(=O)c3cccc([C@@H]4CN(C)Cc5c(Cl)cc(Cl)cc54)c3)c2)C1`, 126 nM.
Consider `CN1Cc2c(Cl)cc(Cl)cc2[C@H](c2cccc(S(=O)(=O)NCCOCCOCCNC(=O)NCCN(CCNC(=O)NCCOCCOCCNS(=O)(=O)c3cccc([C@@H]4CN(C)Cc5c(Cl)cc(Cl)cc54)c3)CCNC(=O)NCCOCCOCCNS(=O)(=O)c3cccc([C@@H]4CN(C)Cc5c(Cl)cc(Cl)cc54)c3)c2)C1`, for which the IC50 was 2510 nM.
With `CN1Cc2c(Cl)cc(Cl)cc2[C@H](c2cccc(S(=O)(=O)NCCOCCOCCOCCNC(=O)NCCN3CCN(c4nc(N5CCN(CCNC(=O)NCCOCCOCCOCCNS(=O)(=O)c6cccc([C@@H]7CN(C)Cc8c(Cl)cc(Cl)cc87)c6)CC5)nc(N5CCN(CCNC(=O)NCCOCCOCCOCCNS(=O)(=O)c6cccc([C@@H]7CN(C)Cc8c(Cl)cc(Cl)cc87)c6)CC5)n4)CC3)c2)C1`, the IC50 was 200 nM.
`NCCOCCOCCNS(=O)(=O)c1ccc(O[C@H]2c3cc(Cl)cc(Cl)c3C[C@@H]2N2CCCCC2)cc1`: the half-inhibitory concentration (IC50) is < 10000 nM.
In the case of `CN1Cc2c(Cl)cc(Cl)cc2[C@H](c2cccc(S(=O)(=O)NCCOCCOCCNC(=O)CCC(N)(CCC(=O)NCCOCCOCCNS(=O)(=O)c3cccc([C@@H]4CN(C)Cc5c(Cl)cc(Cl)cc54)c3)CCC(=O)NCCOCCOCCNS(=O)(=O)c3cccc([C@@H]4CN(C)Cc5c(Cl)cc(Cl)cc54)c3)c2)C1`, the IC50 is 85.1 nM.
For the compound `CN1Cc2c(Cl)cc(Cl)cc2[C@H](c2cccc(S(=O)(=O)NCCOCCOCCOCCNC(=O)CN(CCN(CC(=O)O)CC(=O)NCCOCCOCCOCCNS(=O)(=O)c3cccc([C@@H]4CN(C)Cc5c(Cl)cc(Cl)cc54)c3)CC(=O)O)c2)C1`, the concentration for half-maximal inhibition (IC50) was 10 nM.
As for `CN1Cc2c(Cl)cc(Cl)cc2[C@H](c2cccc(S(=O)(=O)NCCOCCOCCOCCNC(=O)CN(CCN(CC(=O)NCCOCCOCCOCCNS(=O)(=O)c3cccc([C@@H]4CN(C)Cc5c(Cl)cc(Cl)cc54)c3)CC(=O)NCCOCCOCCOCCNS(=O)(=O)c3cccc([C@@H]4CN(C)Cc5c(Cl)cc(Cl)cc54)c3)CCN(CC(=O)NCCOCCOCCOCCNS(=O)(=O)c3cccc([C@@H]4CN(C)Cc5c(Cl)cc(Cl)cc54)c3)CC(=O)NCCOCCOCCOCCNS(=O)(=O)c3cccc([C@@H]4CN(C)Cc5c(Cl)cc(Cl)cc54)c3)c2)C1`, the figure is 501 nM; as for `CN1Cc2c(Cl)cc(Cl)cc2[C@H](c2cccc(S(=O)(=O)NCCOCCOCCOCCNC(=O)CN(CC(=O)NCCOCCOCCOCCNS(=O)(=O)c3cccc([C@@H]4CN(C)Cc5c(Cl)cc(Cl)cc54)c3)[C@@H]3CCCC[C@H]3N(CC(=O)NCCOCCOCCOCCNS(=O)(=O)c3cccc([C@@H]4CN(C)Cc5c(Cl)cc(Cl)cc54)c3)CC(=O)NCCOCCOCCOCNS(=O)(=O)c3cccc([C@@H]4CN(C)Cc5c(Cl)cc(Cl)cc54)c3)c2)C1`, 316 nM; as for `CN1Cc2c(Cl)cc(Cl)cc2C(c2cccc(S(=O)(=O)NCCOCCOCCOCCNC(=O)CCN(CCC(=O)NCCOCCOCCOCCNS(=O)(=O)c3cccc([C@@H]4CN(C)Cc5c(Cl)cc(Cl)cc54)c3)CCC(=O)NCCOCCOCCOCCNS(=O)(=O)c3cccc([C@@H]4CN(C)Cc5c(Cl)cc(Cl)cc54)c3)c2)C1` (stereo partly drawn), 316 nM.
Consider `CCOCCOCCC(=O)N(CCNC(=O)NCCOCCOCCNS(=O)(=O)c1cccc([C@@H]2CN(C)Cc3c(Cl)cc(Cl)cc32)c1)CCNC(=O)NCCOCCOCCNS(=O)(=O)c1cccc([C@@H]2CN(C)Cc3c(Cl)cc(Cl)cc32)c1`, for which the IC50 was 158 nM.
For the compound `CCCCCCCCNC(=O)N(CCNC(=O)NCCOCCOCCNS(=O)(=O)c1cccc([C@@H]2CN(C)Cc3c(Cl)cc(Cl)cc32)c1)CCNC(=O)NCCOCCOCCNS(=O)(=O)c1cccc([C@@H]2CN(C)Cc3c(Cl)cc(Cl)cc32)c1`, the half-maximal inhibitory concentration (IC50) was 1580 nM.
As for `CCOCCN(CC(=O)NCCOCCOCCOCCNS(=O)(=O)c1cccc([C@@H]2CN(C)Cc3c(Cl)cc(Cl)cc32)c1)CC(=O)NCCOCCOCCOCCNS(=O)(=O)c1cccc([C@@H]2CCN(C)c3c(Cl)cc(Cl)cc32)c1`, the figure is 63.1 nM.
As for `CN(CCCNC(=O)NCCOCCOCCOCCNS(=O)(=O)c1cccc([C@@H]2CN(C)Cc3c(Cl)cc(Cl)cc32)c1)CCCNC(=O)NCCOCCOCCOCCNS(=O)(=O)c1cccc([C@@H]2CN(C)Cc3c(Cl)cc(Cl)cc32)c1`, the 50% inhibitory concentration (IC50) was 39.8 nM.
